These results are taken from patent US11123432B2, “Antimicrobial insect repellent composition” (YEDITEPE UNIVERSITESi, priority 2016, dated 2021).

Where two headings read alike, the source gives them in different places.

The test system of one data set is Adenovirus Type 5 (Av-5). The class given is cell-based, Human adenovirus type 5 Adenoid 75 strain. Particulars: for reduction in virus titer: AV-5 (Table 4), ratio 1/1, 20° C., clean and contaminated media; for Ratio of reduction in virus titer: EBAAP; for EBAAP virüs titer: untreated virus titer 6.0.
In a further data set the test system is Poliovirus Type 1 (PV-1). The class given is cell-based, Poliovirus type 1 Chat strain. As to conditions: for reduction in virus titer: PV-1 (Table 5), ratio 1/1, 20° C., clean and contaminated media; for Ratio of reduction in virus titer: EBAAP; for EBAAP virus titer: untreated virus titer 5.0.
The conditions of data set [1]: result of many toxicity experiments; cited from earlier work.
In the next data set the test system is enteric bacteria. As to conditions: Bailey et al. (1980); cited from earlier work.
For the next data set, the system named is Penicillium expansium. As to conditions: Qin et al. (2007); cited from earlier work.
[2] abbreviates: AV-5, 5 minutes, contaminated medium.
[3] abbreviates: AV-5, 60 minutes, contaminated medium.
The mark [4] stands for this setting: PV-1, 5 minutes, contaminated medium.
Where [5] appears, read: PV-1, 60 minutes, contaminated medium.

In the case of `CCCCN(CCC(=O)OCC)C(C)=O` [EBAAP, Ethyl Butyl acetylaminopropionate], the “reduction in virus titer” value in the data set on Adenovirus Type 5 (Av-5) (5 minutes) is given as 2 log; in the data set with Adenovirus Type 5 (Av-5) (60 minutes), 4 log; with Poliovirus Type 1 (PV-1) (5 minutes), 2 log; in the data set on Poliovirus Type 1 (PV-1) (60 minutes), 4 log. Further, the “Ratio of reduction in virus titer” value amounted to 2.0 Logarithmic TCID50 with Adenovirus Type 5 (Av-5) (AV-5, 5 minutes, clean medium); 2.0 Logarithmic TCID50 in the data set with Adenovirus Type 5 (Av-5) (setting [2]); 4.0 Logarithmic TCID50 in the data set on Adenovirus Type 5 (Av-5) (AV-5, 60 minutes, clean medium); 4.0 Logarithmic TCID50 in the data set with Adenovirus Type 5 (Av-5) (setting [3]); 2.0 Logarithmic TCID50 in the data set with Poliovirus Type 1 (PV-1) (PV-1, 5 minutes, clean medium); 2.0 Logarithmic TCID50 in the data set on Poliovirus Type 1 (PV-1) (setting [4]). In addition, the “Ratio of reduction in virus titer” value is listed as 4.0 Logarithmic TCID50 in the data set on Poliovirus Type 1 (PV-1) (PV-1, 60 minutes, clean medium) and 4.0 Logarithmic TCID50 in the data set with Poliovirus Type 1 (PV-1) (setting [5]). For the same molecule, the “EBAAP virüs titer” value in the data set on Adenovirus Type 5 (Av-5) (AV-5, 5 minutes, clean medium) is recorded as 4.0 Logarithmic TCID50; in the data set on Adenovirus Type 5 (Av-5) (setting [2]), 4.0 Logarithmic TCID50; with Adenovirus Type 5 (Av-5) (AV-5, 60 minutes, clean medium) it was 2.0 Logarithmic TCID50; in the data set with Adenovirus Type 5 (Av-5) (setting [3]), 2.0 Logarithmic TCID50. Moreover, the active against virus with Adenovirus Type 5 (Av-5) (AV-5, used undiluted, 20° C., 60 minute application) came out at 99.9%; in the data set on Poliovirus Type 1 (PV-1) (PV-1, used undiluted, 20° C., 60 minute application), 99.9%. The EBAAP virus titer with Poliovirus Type 1 (PV-1) (PV-1, 5 minutes, clean medium) is 3.0 Logarithmic TCID50; in the data set with Poliovirus Type 1 (PV-1) (setting [4]), 3.0 Logarithmic TCID50; in the data set on Poliovirus Type 1 (PV-1) (PV-1, 60 minutes, clean medium), 1.0 Logarithmic TCID50; in the data set with Poliovirus Type 1 (PV-1) (setting [5]), 1.0 Logarithmic TCID50. The “irritation on the skin” value in data set [1] is reported as “does not cause irritation on the skin”.
Consider `OB(O)O` [boric acid], for which the antibacterial activity result in the data set on enteric bacteria is recorded as “has antibacterial activity”.
As for `[K+].[K+].[O-]B1OB2OB([O-])OB(O1)O2` [potassium tetraborate], in the data set with Penicillium expansium, the “minimum concentration preventing micelle growth” value is recorded as 0.1%.
